US20150152088A1, “ALKYNYL HETEROAROMATIC COMPOUND AND USE THEREOF” (Nanjing Sanhome Pharmaceutical Co., Ltd., priority 2012, published 2015)

Key:
[1] = test system: Ovcar-3 human ovarian cancer cells; experiment: MTT assay, in vitro inhibitory activity on cells; type: cell-based; conditions: typically 48 hours
Text: (§1) In this example, MTT assay was used to detect in vitro inhibitory activity of the compounds prepared according to the above examples on the cells. […] AP24534 was purchased from Shanghai Xinkuo Chemical Technology Co., Ltd., China.
(§2) Dimethyl sulfoxide (DMSO) is capable of dissolving formazan in cells, and absorbance value can be measured at a wavelength of 490 nm by an enzyme-linked immunometric meter, which reflects the number of living cells. Within a certain range of the number of cells, the amount of MTT crystals formed is proportional to the number of living cells.
(§3) 1. […] 2. Culturing in a 37° C., 5% CO2 incubator and keeping the cells adhering to the wall of the well. 3. […] 4. Carefully removing the supernatant, gently washing with PBS and discarding the supernatant again. 5. […] 6. Terminating culturing and carefully discarding the medium in each well. 7. Adding 150 μl dimethyl sulfoxide into each well, shaking for 10 minutes at low speed in a shaker, to make crystals fully dissolved. 8. Measuring the absorbance of each well at 490 nm by an enzyme-linked immunometric meter. 9. Calculating IC50 values.

[2] = test system: K562 chronic myelogenous leukemia cells; experiment: MTT assay, in vitro inhibitory activity on cells; type: cell-based; conditions: Homo sapiens, K562, 48 h, typically 48 hours
Text: as §1, §2, §3

[3] = test system: MDA-MB-231 human breast cancer cells; experiment: MTT assay, in vitro inhibitory activity on cells; type: cell-based; conditions: typically 48 hours
Text: as §1, §2, §3

[4] = test system: Saos-2 human osteosarcoma cells; experiment: MTT assay, in vitro inhibitory activity on cells; type: cell-based; conditions: typically 48 hours
Text: as §1, §2, §3

Human ABL1 (T315I) = biological target: T1, Human ABL1 (T315I) (Homo sapiens, UniProt P00519, T315I); experiment: ABL1 (T315I) kinase activity, [γ-33P] ATP / Abltide radiometric assay; type: biochemical; conditions: ATP 1.0 μM, 120 minutes, room temperature
T1 construct: purchased Millipore Corporation, USA #14-522
Protocol: Kinase activity was determined according to the manufacturer's instructions. Peptide substrate is Abltide ([…]), purchased from Millipore Corporation, USA. Ion exchange chromatography paper P81 was purchased from Whatman Company, UK. [γ-33P] ATP was purchased from Perkin Elmer Company.
[γ-33P] ATP was added at room temperature, with final concentration of 1.0 μM, and the reaction was performed for 120 minutes. 20 μl aliquots were transferred onto the ion exchange chromatography paper P81. The paper was thoroughly washed with a 0.75% phosphoric acid solution three times, and then washed with acetone once. Finally, γ-33P radioactivity was measured.

[5] = test system: KU812 human peripheral blood basophilic leukocytes; experiment: CellTiter-Glo cell viability assay on Bcr-Abl-positive cells; conditions: KU812, 72 h, read-out: IC50 KU812
[6] = test system: MEG-01 human megakaryocyte leukemia cells; experiment: as above; type: cell-based; conditions: 72 hours
Protocol: Each compound was dissolved in DMSO to 10 mM, diluted to 50 μM with complete medium, and then diluted to 10 μM with 0.1% DMSO in complete medium. The resulting solution was 10-fold serially diluted and formulated into 10 concentrations.
MEG-01 human megakaryocyte leukemia cells and KU812 human peripheral blood basophilic leukocytes, purchased from ATCC Company, USA.
6) Calculating cell viability (Cell Viability)=(RLUsample/RLUnegative)×100%, wherein RLUsample was RLU (Relative Light Units) value of the well added with the compound and RLUnegative was RLU value of the well without the compound (that is, cell control, which was treated with the same concentration of DMSO). Data were processed by using a four-parameter logistic fitting module in Graphpad Prism 4.0 software to calculate IC50.

IC50 [1] [µM] | IC50 [2] [µM] | IC50 [3] [µM] | IC50 [4] [µM] | IC50 (Human ABL1 (T315I)) [µM] | IC50 [6] [µM] | SMILES | IC50 [5] [µM]
6.23 | 2.44 | 1.3 | 1.59 | 0.0023 |  | Cc1ccc(C(=O)Nc2ccc(CN3CCN(C)CC3)c(C(F)(F)F)c2)cc1C#Cc1cccc2ncncc12 [Example 4, 3-((quinazolin-5-yl)ethynyl)-4-methyl-N-[4-((4-methylpiperazin-1-yl)methyl)-3-trifluoromethylphenyl]benzamide] | 
4.47 | 1.34 | 2.45 | 1.07 | 0.00451 |  | Cc1ccc(C(=O)Nc2ccc(CN3CCN(C)CC3)c(C(F)(F)F)c2)cc1C#Cc1ccc2cncnc2c1 [Example 3, 3-((quinazolin-7-yl)ethynyl)4-methyl-N-[4-((4-methylpiperazin-1-yl)methyl)-3-trifluoromethylphenyl]benzamide] | 

The next lines start with the compound.

SMILES | IC50 [1] [µM] | IC50 [2] [µM] | IC50 [3] [µM] | IC50 [4] [µM] | IC50 (Human ABL1 (T315I)) [µM] | IC50 [6] [µM] | IC50 [5] [µM]
Cc1ccc(C(=O)Nc2ccc(CN3CCN(C)CC3)c(C(F)(F)F)c2)cc1C#Cc1ccc2c(=O)[nH]cnc2c1 [Example 9, 3-((4-oxo-3,4-dihydroquinazolin-7-yl)ethynyl)-4-methyl-N-[4-((4-methylpiperazin-1-yl)methyl)-3-trifluoromethylphenyl]benzamide] |  | 5.34 |  |  | 0.0058 | 0.00149 | 0.000518
Cc1ccc(C(=O)Nc2ccc(CN3CCN(C)CC3)c(C(F)(F)F)c2)cc1C#Cc1ccc2c(N)ncnc2c1 [Example 13, 3-((4-aminoquinazolin-7-yl)ethynyl)-4-methyl-N-[4-((4-methylpiperazin-1-yl)methyl)-3-trifluoromethylphenyl]benzamide] |  | 4.12 |  |  | 0.0095 | 0.00356 | 0.00117
CNc1ncc2c(F)cc(C#Cc3cc(C(=O)Nc4ccc(CN5CCN(C)CC5)c(C(F)(F)F)c4)ccc3C)cc2n1 [Example 7, 3-((5-fluoro-2-methylaminoquinazolin-7-yl)ethynyl)-4-methyl-N-[4-((4-methylpiperazin-1-yl)methyl)-3-trifluoromethylphenyl]benzamide] | 2.35 | 0.67 | 4.14 | 4.7 |  |  | 
Cc1ccc(C(=O)Nc2ccc(CN3CCN(C)CC3)c(C(F)(F)F)c2)cc1C#Cc1cc(F)c2cnc(N)nc2c1 [Example 5, 3-((5-fluoro-2-aminoquinazolin-7-yl)ethynyl)-4-methyl-N-[4-((4-methylpiperazin-1-yl)methyl)-3-trifluoromethylphenyl]benzamide] | 6.52 | 2.12 | 6.71 | 0.31 |  |  | 
Cc1ccc(C(=O)Nc2ccc(CN3CCN(C)CC3)c(C(F)(F)F)c2)cc1C#Cc1ccc2cnc(N)nc2c1 [Example 11, 3-((2-aminoquinazolin-7-yl)ethynyl)-4-methyl-N-[4-((4-methylpiperazin-1-yl)methyl)-3-trifluoromethylphenyl]benzamide] | 4.72 | 0.9 | 2.79 | 1.79 |  |  | 
